Measured values from patent publication US7728012B2, “Carboxamide compounds and their use as calpain inhibitors” (Abbott GmbH & Co. KG, priority 2006, dated 2010).
pKi: −log10 of the molar value.

What was measured:
Type in all cases: biochemical
[1] = target: T1, cathepsin L isolated from human liver (Homo sapiens, UniProt P07711); experiment: Cathepsin L kinetic fluorescence enzyme inhibition assay; settings: selectivity ratio versus calpain I
T1 construct: cathepsin L—isolated from human liver; purchased Calbiochem 219402; host or cells: human liver (tissue isolate)
T1 sequence (P07711 114-333): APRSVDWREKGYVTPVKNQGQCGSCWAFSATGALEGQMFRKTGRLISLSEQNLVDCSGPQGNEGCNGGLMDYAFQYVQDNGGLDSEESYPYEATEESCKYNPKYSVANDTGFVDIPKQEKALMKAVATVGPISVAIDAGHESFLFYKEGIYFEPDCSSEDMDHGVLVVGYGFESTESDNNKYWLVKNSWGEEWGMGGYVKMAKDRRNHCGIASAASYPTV
Method in brief: (§1)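 Kinetic fluorescence (ex 390/em 460 nm) at room temperature in 50 mM MES, 2 mM EDTA, 0.05% Brij 35, 2.5 mM L-cysteine, pH 6.0. Cathepsin B (liver, 0.25 nM) with 100 μM Z-Phe-Arg-AMC; cathepsin L (liver, 1 nM) with 2 μM Z-Phe-Arg-AMC; recombinant E. coli cathepsin S (0.5 nM) with 20 μM Z-Val-Val-Arg-AMC. Ki via Cheng-Prusoff.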

[2] = target: T2, cathepsin K activated from recombinant human procathepsin K (Homo sapiens, UniProt P43235); experiment: Cathepsin K kinetic fluorescence enzyme inhibition assay; settings: selectivity ratio versus calpain I
T2 construct: purchased Calbiochem 342001; host or cells: E. coli
T2 sequence (P43235 115-329): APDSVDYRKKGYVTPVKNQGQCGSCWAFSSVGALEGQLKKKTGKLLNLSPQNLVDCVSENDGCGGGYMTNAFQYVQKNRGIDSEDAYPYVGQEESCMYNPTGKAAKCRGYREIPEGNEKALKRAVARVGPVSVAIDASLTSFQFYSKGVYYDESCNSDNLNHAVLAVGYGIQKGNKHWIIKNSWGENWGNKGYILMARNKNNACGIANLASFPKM

[3] = target: T3, recombinant human cathepsin S (Homo sapiens, UniProt P25774); experiment: Cathepsin S kinetic fluorescence enzyme inhibition assay; settings: selectivity ratio versus calpain I
T3 construct: purchased Calbiochem 219343; host or cells: E. coli
T3 sequence (P25774 115-331): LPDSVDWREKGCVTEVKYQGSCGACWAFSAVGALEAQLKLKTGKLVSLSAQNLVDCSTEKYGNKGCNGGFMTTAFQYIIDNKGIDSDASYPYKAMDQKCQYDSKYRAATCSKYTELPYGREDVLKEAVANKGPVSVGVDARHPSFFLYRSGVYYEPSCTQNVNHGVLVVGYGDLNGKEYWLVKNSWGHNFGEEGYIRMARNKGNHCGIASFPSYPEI
Method in brief: as §1

[4] = target: T4, calpain-I isolated from human erythrocytes (Homo sapiens, UniProt P07384); experiment: Calpain I kinetic fluorescence enzyme inhibition assay; settings: apparent Ki from IC50 by Cheng-Prussoff; average of 2 to 4 dose-effect plots
T4 construct: calpain-I—isolated from human erythrocytes; purchased Calbiochem 208713; host or cells: human erythrocytes (tissue isolate)
T4 sequence (P07384 1-714): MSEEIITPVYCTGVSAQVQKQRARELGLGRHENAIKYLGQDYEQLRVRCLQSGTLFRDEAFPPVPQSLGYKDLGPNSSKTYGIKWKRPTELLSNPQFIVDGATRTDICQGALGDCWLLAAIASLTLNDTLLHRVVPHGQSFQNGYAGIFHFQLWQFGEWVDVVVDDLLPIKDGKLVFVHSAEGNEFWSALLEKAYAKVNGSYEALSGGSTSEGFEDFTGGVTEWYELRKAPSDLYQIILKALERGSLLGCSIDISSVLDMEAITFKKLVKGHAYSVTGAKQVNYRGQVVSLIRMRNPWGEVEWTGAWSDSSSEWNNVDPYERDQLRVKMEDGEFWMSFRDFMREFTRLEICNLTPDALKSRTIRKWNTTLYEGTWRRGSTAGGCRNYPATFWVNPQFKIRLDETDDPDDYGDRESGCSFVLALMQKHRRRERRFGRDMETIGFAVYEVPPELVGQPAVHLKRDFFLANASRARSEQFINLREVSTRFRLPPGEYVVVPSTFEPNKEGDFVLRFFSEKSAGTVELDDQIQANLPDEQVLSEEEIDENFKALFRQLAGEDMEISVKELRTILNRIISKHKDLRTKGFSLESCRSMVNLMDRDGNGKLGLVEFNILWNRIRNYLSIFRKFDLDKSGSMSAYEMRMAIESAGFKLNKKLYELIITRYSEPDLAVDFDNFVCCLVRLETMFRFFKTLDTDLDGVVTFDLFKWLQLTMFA
T4 sequence (P04632 1-268 partner): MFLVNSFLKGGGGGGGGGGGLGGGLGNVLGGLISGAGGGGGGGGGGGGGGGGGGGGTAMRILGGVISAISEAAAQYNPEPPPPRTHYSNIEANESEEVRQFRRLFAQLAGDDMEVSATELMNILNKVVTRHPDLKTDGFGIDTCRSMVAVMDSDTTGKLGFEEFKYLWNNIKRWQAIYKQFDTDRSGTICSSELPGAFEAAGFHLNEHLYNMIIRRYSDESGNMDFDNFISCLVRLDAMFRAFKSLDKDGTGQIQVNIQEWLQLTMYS

[5] = target: T5, cathepsin B isolated from human liver (Homo sapiens, UniProt P07858); experiment: Cathepsin B kinetic fluorescence enzyme inhibition assay; settings: selectivity ratio versus calpain I
T5 construct: cathepsin B—isolated from human liver; purchased Calbiochem 219362; host or cells: human liver (tissue isolate)
Method in brief: as §1

| pKi [4] | SMILES | Sel cat. L (Ki(cathepsin L)/Ki(calpain) ratio) [1] | Sel cat. K (Ki(cathepsin K)/Ki(calpain) ratio) [2] | Sel cat. S (Ki(cathepsin S)/Ki(calpain) ratio) [3] | Sel cat. B (Ki(cathepsin B)/Ki(calpain) ratio) [5] |
| --- | --- | --- | --- | --- | --- |
| ≥ 7.40 | NC(=O)C(=O)C(Cc1ccccc1)NC(=O)c1cccnc1-n1ccc(-c2cccc(OCc3ccccc3)c2)n1 (stereo not shown) [Example 96, N-[3-Amino-2,3-dioxo-1-(phenylmethyl)propyl]-2-(3-{3-[(phenylmethyl)oxy]phenyl}-1H-pyrazol-1-yl)pyridine-3-carboxamide] | ++ (Ki(cathepsin L)/Ki(calpain) ratio of ≧50) | ++ (Ki(cathepsin K)/Ki(calpain) ratio of ≧30) | ++ (Ki(cathepsin S)/Ki(calpain) ratio of ≧100) | ++ (Ki(cathepsin B)/Ki(calpain) ratio of ≧30) |
| ≥ 7.40 | COc1ccc(CC(NC(=O)c2cccnc2-n2ccc(-c3ccc(F)cc3F)n2)C(=O)C(N)=O)cc1 (stereo not shown) [Example 97, N-(3-Amino-1-{[4-(methyloxy)phenyl]methyl}-2,3-dioxopropyl)-2-[3-(2,4-difluorophenyl)-1H-pyrazol-1-yl]pyridine-3-carboxamide] | ++ (Ki(cathepsin L)/Ki(calpain) ratio of ≧50) | + (10≦Ki(cathepsin K)/Ki(calpain)<30) | ++ (Ki(cathepsin S)/Ki(calpain) ratio of ≧100) | ++ (Ki(cathepsin B)/Ki(calpain) ratio of ≧30) |
| ≥ 7.40 | COc1ccc(CC(NC(=O)c2cccnc2-n2ccc(-c3ccc(Cl)cc3Cl)n2)C(=O)C(N)=O)cc1 (stereo not shown) [Example 98, N-(3-Amino-1-{[4-(methyloxy)phenyl]methyl}-2,3-dioxopropyl)-2-[3-(2,4-dichlorophenyl)-1H-pyrazol-1-yl]pyridine-3-carboxamide] | ++ (Ki(cathepsin L)/Ki(calpain) ratio of ≧50) | ++ (Ki(cathepsin K)/Ki(calpain) ratio of ≧30) | ++ (Ki(cathepsin S)/Ki(calpain) ratio of ≧100) | ++ (Ki(cathepsin B)/Ki(calpain) ratio of ≧30) |
| ≥ 7.40 | NC(=O)C(=O)C(Cc1ccccc1)NC(=O)c1cccnc1-n1ccc(-c2ccc(N3CCOCC3)cc2Cl)n1 (stereo not shown) [Example 99, N-[3-Amino-2,3-dioxo-1-(phenylmethyl)propyl]-2-[3-(2-chloro-4-morpholin-4-ylphenyl)-1H-pyrazol-1-yl]pyridine-3-carboxamide] | ++ (Ki(cathepsin L)/Ki(calpain) ratio of ≧50) | ++ (Ki(cathepsin K)/Ki(calpain) ratio of ≧30) | ++ (Ki(cathepsin S)/Ki(calpain) ratio of ≧100) | ++ (Ki(cathepsin B)/Ki(calpain) ratio of ≧30) |
| ≥ 7.40 | NC(=O)C(=O)C(Cc1ccccc1)NC(=O)c1cccnc1-n1cc2c(n1)-c1ccccc1OC2 (stereo not shown) [Example 100, N-[3-Amino-2,3-dioxo-1-(phenylmethyl)propyl]-2-chromeno[4,3-c]pyrazol-2(4H)-ylpyridine-3-carboxamide] | ++ (Ki(cathepsin L)/Ki(calpain) ratio of ≧50) | ++ (Ki(cathepsin K)/Ki(calpain) ratio of ≧30) | ++ (Ki(cathepsin S)/Ki(calpain) ratio of ≧100) | + (10≦Ki(cathepsin B)/Ki(calpain)<30) |
| ≥ 7.40 | NC(=O)C(=O)C(Cc1ccccc1)NC(=O)c1cccnc1-n1ccc(-c2ccc(N3CCOCC3)cc2F)n1 (stereo not shown) [Example 102, N-[3-Amino-2,3-dioxo-1-(phenylmethyl)propyl]-2-[3-(2-fluoro-4-morpholin-4-ylphenyl)-1H-pyrazol-1-yl]pyridine-3-carboxamide] | ++ (Ki(cathepsin L)/Ki(calpain) ratio of ≧50) | ++ (Ki(cathepsin K)/Ki(calpain) ratio of ≧30) | ++ (Ki(cathepsin S)/Ki(calpain) ratio of ≧100) | + (10≦Ki(cathepsin B)/Ki(calpain)<30) |
| ≥ 7.40 | NC(=O)C(=O)C(Cc1ccccc1)NC(=O)c1cccnc1-n1ccc(-c2ccc(Cl)s2)n1 (stereo not shown) [Example 103, N-[3-Amino-2,3-dioxo-1-(phenylmethyl)propyl]-2-[3-(5-chloro-2-thienyl)-1H-pyrazol-1-yl]pyridine-3-carboxamide] | ++ (Ki(cathepsin L)/Ki(calpain) ratio of ≧50) | + (10≦Ki(cathepsin K)/Ki(calpain)<30) | ++ (Ki(cathepsin S)/Ki(calpain) ratio of ≧100) | + (10≦Ki(cathepsin B)/Ki(calpain)<30) |
| ≥ 7.40 | NC(=O)C(=O)[C@H](Cc1ccccc1)NC(=O)c1cccnc1-n1ccc(-c2ccccc2)n1 [Example 107, N-[(1S)-3-Amino-2,3-dioxo-1-(phenylmethyl)propyl]-2-(3-phenyl-1H-pyrazol-1-yl)pyridine-3-carboxamide] | ++ (Ki(cathepsin L)/Ki(calpain) ratio of ≧50) | + (10≦Ki(cathepsin K)/Ki(calpain)<30) | ++ (Ki(cathepsin S)/Ki(calpain) ratio of ≧100) | + (10≦Ki(cathepsin B)/Ki(calpain)<30) |
| ≥ 7.40 | NC(=O)C(=O)C(Cc1ccccc1)NC(=O)c1cccnc1-n1ccc(-c2sccc2Cl)n1 (stereo not shown) [Example 109, N-[3-Amino-2,3-dioxo-1-(phenylmethyl)propyl]-2-[3-(3-chloro-2-thienyl)-1H-pyrazol-1-yl]pyridine-3-carboxamide] | ++ (Ki(cathepsin L)/Ki(calpain) ratio of ≧50) | ++ (Ki(cathepsin K)/Ki(calpain) ratio of ≧30) | ++ (Ki(cathepsin S)/Ki(calpain) ratio of ≧100) | ++ (Ki(cathepsin B)/Ki(calpain) ratio of ≧30) |
| ≥ 7.40 | NC(=O)C(=O)C(Cc1ccccc1)NC(=O)c1cccnc1-n1ccc(-c2cccc3ccccc23)n1 (stereo not shown) [Example 110, N-[3-Amino-2,3-dioxo-1-(phenylmethyl)propyl]-2-(3-naphthalen-1-yl-1H-pyrazol-1-yl)pyridine-3-carboxamide] | ++ (Ki(cathepsin L)/Ki(calpain) ratio of ≧50) | ++ (Ki(cathepsin K)/Ki(calpain) ratio of ≧30) | ++ (Ki(cathepsin S)/Ki(calpain) ratio of ≧100) | ++ (Ki(cathepsin B)/Ki(calpain) ratio of ≧30) |
| ≥ 7.40 | COc1ccc(CC(NC(=O)c2cccnc2-n2ccc(-c3ccc(F)cc3Cl)n2)C(=O)C(N)=O)cc1 (stereo not shown) [Example 111, N-(3-Amino-1-{[4-(methyloxy)phenyl]methyl}-2,3-dioxopropyl)-2-[3-(2-chloro-4-fluorophenyl)-1H-pyrazol-1-yl]pyridine-3-carboxamide] | ++ (Ki(cathepsin L)/Ki(calpain) ratio of ≧50) | ++ (Ki(cathepsin K)/Ki(calpain) ratio of ≧30) | ++ (Ki(cathepsin S)/Ki(calpain) ratio of ≧100) | ++ (Ki(cathepsin B)/Ki(calpain) ratio of ≧30) |
